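Protocol summary: plate cells (96-well), add compound at 5 concentrations, incubate 48 h, interpolate endpoints linearly. GI50: concentration for 50% inhibition of growth.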 The source made the active and inactive calls. No stated cut-off is given here; in the data, active = GI50 up to about 1.1 µM and inactive = higher.
How the values were obtained:
Test in all cases: NCI anticancer screen, dose series, 48 h
IGROV-1 = test system: IGROV-1
CAKI-1 = test system: CAKI-1
NCI-H23 = test system: NCI-H23
RPMI-8226 = test system: RPMI-8226
HOP-92 = test system: HOP-92
SW-620 = test system: SW-620
UO-31 = test system: UO-31
EKVX = test system: EKVX
BT-549 = test system: BT-549
SK-MEL-5 = test system: SK-MEL-5
TK-10 = test system: TK-10
NCI/ADR-RES = test system: NCI/ADR-RES
MDA-MB-231 = test system: MDA-MB-231
K562 = test system: K562
OVCAR-4 = test system: OVCAR-4
UACC-62 = test system: UACC-62
HCC 2998 = test system: HCC 2998
RXF 393 = test system: RXF 393

Measured: GI50

O=[N+]([O-])c1cccc([N+](=O)[O-])c1S(=O)(=O)c1ccccc1
inactive: IGROV-1 1.89 µM | CAKI-1 2.04 µM | NCI-H23 21.3 µM | RPMI-8226 1.46 µM | HOP-92 3.76 µM | SW-620 2.55 µM | UO-31 1.86 µM | EKVX 21.2 µM | BT-549 3.08 µM | SK-MEL-5 14.1 µM | TK-10 16 µM | NCI/ADR-RES 6.24 µM | MDA-MB-231 18.2 µM

Cc1ccc(S(=O)(=O)Nn2c(C)cc3ccc(S(=O)(=O)Nc4ccccc4[N+](=O)[O-])cc3c2=O)cc1
inactive: IGROV-1 43 µM | CAKI-1 > 100 µM | NCI-H23 > 100 µM | RPMI-8226 62.8 µM | K562 3.85 µM | HOP-92 94.6 µM | SW-620 > 100 µM | UO-31 63.7 µM | EKVX 95.9 µM | OVCAR-4 > 100 µM | BT-549 > 100 µM | UACC-62 38.9 µM | TK-10 > 100 µM | HCC 2998 > 100 µM | NCI/ADR-RES > 100 µM | MDA-MB-231 > 100 µM

CN(CC(=O)O)Cc1c[nH]c2ccccc12
inactive: IGROV-1 > 100 µM | CAKI-1 > 100 µM | NCI-H23 > 100 µM | RPMI-8226 > 100 µM | K562 > 100 µM | HOP-92 > 100 µM | SW-620 > 100 µM | UO-31 > 100 µM | EKVX > 100 µM | OVCAR-4 > 100 µM | BT-549 > 100 µM | UACC-62 > 100 µM | SK-MEL-5 > 100 µM | TK-10 > 100 µM | NCI/ADR-RES > 100 µM | MDA-MB-231 > 100 µM | RXF 393 > 100 µM

OC[C@]1(n2nc3ccccc3n2)OC[C@@H]1c1ccccc1
inactive: IGROV-1 37.2 µM | CAKI-1 27.2 µM | NCI-H23 48.2 µM | RPMI-8226 26.9 µM | K562 56.9 µM | HOP-92 44.6 µM | UO-31 95.3 µM | EKVX > 100 µM | OVCAR-4 16.9 µM | BT-549 28.8 µM | UACC-62 43.3 µM | SK-MEL-5 83.2 µM | TK-10 60.4 µM | HCC 2998 > 100 µM | NCI/ADR-RES 57.3 µM | MDA-MB-231 74.3 µM

O=C(O)c1ccc(C(O)(c2ccccc2)c2ccccc2)cc1
inactive: IGROV-1 > 100 µM | CAKI-1 > 100 µM | NCI-H23 > 100 µM | RPMI-8226 > 100 µM | K562 > 100 µM | UO-31 > 100 µM | EKVX > 100 µM | OVCAR-4 > 100 µM | BT-549 > 100 µM | UACC-62 > 100 µM | SK-MEL-5 > 100 µM | TK-10 > 100 µM | NCI/ADR-RES > 100 µM | MDA-MB-231 > 100 µM

COC(=O)C12OC3CO[Si](C(C)C)(C(C)C)O[Si](C(C)C)(C(C)C)OC3C1Oc1nc(=O)ccn12 (centres undefined)
inactive: IGROV-1 11.6 µM | CAKI-1 17.7 µM | NCI-H23 15.5 µM | RPMI-8226 13.7 µM | K562 15.4 µM | HOP-92 14.3 µM | SW-620 16 µM | UO-31 16.3 µM | EKVX 16.7 µM | OVCAR-4 17.1 µM | BT-549 18.2 µM | UACC-62 14.3 µM | SK-MEL-5 16.2 µM | TK-10 17.1 µM | NCI/ADR-RES 15.6 µM | MDA-MB-231 15.5 µM | RXF 393 16.6 µM

COc1nc(=O)n(C2CC(N=[N+]=[N-])C(CO)O2)cc1C (centres undefined)
inactive: IGROV-1 > 100 µM | NCI-H23 > 100 µM | K562 > 100 µM | HOP-92 > 100 µM | SW-620 > 100 µM | UO-31 52 µM | EKVX > 100 µM | OVCAR-4 > 100 µM | BT-549 > 100 µM | UACC-62 > 100 µM | SK-MEL-5 > 100 µM | TK-10 > 100 µM | NCI/ADR-RES > 100 µM | MDA-MB-231 > 100 µM

COc1ccc(C=O)cc1OS(=O)(=O)C(F)(F)C(F)(F)C(F)(F)C(F)(F)F
inactive: IGROV-1 24.9 µM | CAKI-1 40.3 µM | NCI-H23 32.1 µM | RPMI-8226 21.8 µM | K562 3.52 µM | HOP-92 13.2 µM | SW-620 24.9 µM | UO-31 22.8 µM | EKVX 33.3 µM | OVCAR-4 43.8 µM | BT-549 30.2 µM | UACC-62 21.4 µM | SK-MEL-5 15.5 µM | TK-10 > 49.5 µM | NCI/ADR-RES 21 µM | MDA-MB-231 23.6 µM | RXF 393 21.3 µM

Cc1c2c(n(CC(c3ccccc3)c3ccccc3)c1C)NN=C(C#N)S2(=O)=O
inactive: IGROV-1 > 100 µM | CAKI-1 > 100 µM | NCI-H23 > 100 µM | RPMI-8226 > 100 µM | HOP-92 > 100 µM | SW-620 > 100 µM | UO-31 > 100 µM | EKVX > 100 µM | OVCAR-4 > 100 µM | BT-549 > 100 µM | UACC-62 97.7 µM | SK-MEL-5 > 100 µM | TK-10 > 100 µM | HCC 2998 > 100 µM | NCI/ADR-RES > 100 µM | MDA-MB-231 33.9 µM

O=C(c1ccccc1)c1ccc(N2C(=O)/C(=C/c3ccccc3S)N=C2c2ccccc2)c(N2C(=O)/C(=C/c3ccccc3S)N=C2c2ccccc2)c1
inactive: IGROV-1 46.9 µM | CAKI-1 > 100 µM | RPMI-8226 21.9 µM | K562 48.9 µM | HOP-92 > 100 µM | SW-620 43.2 µM | UO-31 84.5 µM | EKVX > 100 µM | OVCAR-4 38.3 µM | BT-549 49.3 µM | UACC-62 49.4 µM | SK-MEL-5 29.4 µM | TK-10 > 100 µM | HCC 2998 35.7 µM | NCI/ADR-RES 32.4 µM | MDA-MB-231 > 100 µM

CSc1nnc(SC)nn1
inactive: IGROV-1 16.3 µM | CAKI-1 16.9 µM | NCI-H23 20.8 µM | RPMI-8226 13.3 µM | K562 8.04 µM | HOP-92 3.84 µM | SW-620 17.2 µM | UO-31 15.5 µM | EKVX 16.6 µM | OVCAR-4 18.5 µM | BT-549 16 µM | UACC-62 18.2 µM | SK-MEL-5 15.8 µM | TK-10 12.6 µM | NCI/ADR-RES 16.8 µM | MDA-MB-231 18.2 µM | RXF 393 16.7 µM

COc1ccc(Cn2c(=O)c(OC)c(C)c3cc4ccccc4cc32)cc1
inactive: IGROV-1 21.4 µM | CAKI-1 37.3 µM | NCI-H23 22.3 µM | K562 28.3 µM | SW-620 32.5 µM | UO-31 39.2 µM | EKVX 6.55 µM | OVCAR-4 20.2 µM | BT-549 34.3 µM | UACC-62 13.2 µM | SK-MEL-5 6.21 µM | TK-10 25.7 µM | HCC 2998 29 µM | NCI/ADR-RES 22.1 µM | MDA-MB-231 22.7 µM | RXF 393 34.4 µM

Source: ChEMBL document CHEMBL1201862, “PubChem BioAssay data set” (2004)
